{
  "source": "patent US10959450B2",
  "about": "“Food composition for relieving symptoms of allergic and autoimmune diseases” (priority 2017, dated 2021)",
  "system": "H1N1 flu",
  "experiment": "Clinical Trial 6, influenza patient (H1N1 flu)",
  "format": "in vivo",
  "settings": "person; Tamiflu taken for a week",
  "source_text": "They were a patient taking Tamiflu against symptoms of H1N1 flu and taking it for a week.",
  "data": [
    {"smiles": "CCOC(=O)C1=C[C@@H](OC(CC)CC)[C@H](NC(C)=O)[C@@H](N)C1", "note": "[Tamiflu]", "values": [
      {"measurement": "improvement of symptoms of H1N1 flu", "value": "minimal"}
    ]}
  ]
}
